Measurements reported in publication PMC3509171 (Nature chemical biology, 2012).
Changes are numbered by the printed parent chain.

Columns and labels:
[1] = molecular target: T1, hOGT (312-1031) (Homo sapiens, UniProt O15294, K852M); experiment: surface plasmon resonance, […] equilibrium fit; assay type: binding
T1 sequence (O15294 322-1041 K852M): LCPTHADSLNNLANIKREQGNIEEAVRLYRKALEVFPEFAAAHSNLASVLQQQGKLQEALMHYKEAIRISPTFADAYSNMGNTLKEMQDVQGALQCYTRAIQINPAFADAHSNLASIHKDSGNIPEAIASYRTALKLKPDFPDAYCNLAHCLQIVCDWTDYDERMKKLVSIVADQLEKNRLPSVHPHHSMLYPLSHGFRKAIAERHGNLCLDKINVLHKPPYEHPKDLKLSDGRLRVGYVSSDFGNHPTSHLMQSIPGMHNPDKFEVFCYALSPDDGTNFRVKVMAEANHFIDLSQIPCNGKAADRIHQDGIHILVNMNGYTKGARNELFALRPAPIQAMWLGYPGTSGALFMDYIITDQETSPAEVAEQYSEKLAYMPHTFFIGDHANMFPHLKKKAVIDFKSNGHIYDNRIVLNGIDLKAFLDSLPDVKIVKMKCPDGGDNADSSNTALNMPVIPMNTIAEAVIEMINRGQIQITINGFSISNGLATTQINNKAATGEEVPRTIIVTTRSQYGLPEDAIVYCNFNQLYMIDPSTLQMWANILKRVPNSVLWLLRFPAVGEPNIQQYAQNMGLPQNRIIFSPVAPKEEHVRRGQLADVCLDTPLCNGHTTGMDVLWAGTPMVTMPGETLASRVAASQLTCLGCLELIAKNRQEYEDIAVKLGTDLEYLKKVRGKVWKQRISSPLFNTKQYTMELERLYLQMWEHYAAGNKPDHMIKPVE

[2] = molecular target: T2, hOGT (312-1031) (Homo sapiens, UniProt O15294); experiment: surface plasmon resonance, […] equilibrium fit; assay type: binding
T2 sequence (O15294 322-1041): T1 sequence (O15294 322-1041 K852M) with M531K

[3] = molecular target: T2, hOGT (312-1031); experiment: in vitro O-GlcNAc transfer inhibition; assay type: biochemical
[4] = molecular target: T3, hOGT (312-1031) (Homo sapiens, UniProt O15294, D564N); experiment: surface plasmon resonance, […] equilibrium fit; assay type: binding
T3 sequence (O15294 322-1041 D564N): T1 sequence (O15294 322-1041 K852M) with D243N, M531K

[5] = molecular target: T4, hOGT (312-1031) (Homo sapiens, UniProt O15294, H568F); experiment: surface plasmon resonance, […] equilibrium fit; assay type: binding
T4 sequence (O15294 322-1041 H568F): T1 sequence (O15294 322-1041 K852M) with H247F, M531K

| Compound | Kd [1] [µM] | Kd [2] [µM] | IC50 [3] [µM] | Kd [4] [µM] | Kd [5] [µM] |
| --- | --- | --- | --- | --- | --- |
| CC(=O)N[C@@H]1[C@@H](O)[C@H](O)[C@@H](CO)S[C@@H]1OP(=O)(O)OP(=O)(O)OC[C@H]1O[C@@H](n2ccc(=O)[nH]c2=O)[C@H](O)[C@@H]1O [compound 1, UDP-5S-GlcNAc] | 5.7 ± 0.1 |  |  |  |  |
| O=C(N[C@H]1[C@@H](OP(=O)(O)OP(=O)(O)OC[C@H]2O[C@@H](n3ccc(=O)[nH]c3=O)[C@H](O)[C@@H]2O)O[C@H](CO)[C@@H](O)[C@@H]1O)C(F)(F)F [compound 2, UDP-GlcNAcF3] | 29.3 ± 0.1 | 12.1 ± 0.1 |  |  |  |
| CC(=O)N[C@H]1[C@@H](OP(=O)(O)O[P@](O)(=S)OC[C@H]2O[C@@H](n3ccc(=O)[nH]c3=O)[C@H](O)[C@@H]2O)O[C@H](CO)[C@@H](O)[C@@H]1O [compound 4, RP-αS-UDP-GlcNAc] | 2.8 ± 0.1 | 11.3 ± 0.1 | 25 |  |  |
| CC(=O)N[C@H]1[C@@H](OP(=O)(O)OP(=O)(O)OC[C@H]2O[C@@H](n3ccc(=O)[nH]c3=O)[C@H](O)[C@@H]2O)O[C@H](CO)[C@@H](O)[C@@H]1O [UDP-GlcNAc] | 4.7 ± 0.1 | 16.1 ± 0.1 |  | 32.1 ± 0.3 | 42.3 ± 0.4 |
| O=c1ccn([C@@H]2O[C@H](COP(=O)(O)OP(=O)(O)O)[C@@H](O)[C@H]2O)c(=O)[nH]1 [UDP] |  |  |  | 0.6 ± 0.03 | 0.7 ± 0.1 |
